Test [1] deals with Gamma-aminobutyric acid receptor subunit alpha-6/beta-3/gamma-2 (Homo sapiens, UniProt Q16445+P18507+P28472). The test is described as follows: Binding affinity for human recombinant gamma-aminobutyric-acid (GABA) A receptor alpha-6-beta-3-gamma-2.
For test [2], the target named is T1, Gamma-aminobutyric acid receptor subunit alpha-1/beta-3/gamma-2 (Homo sapiens, UniProt P14867+P18507+P28472).
T1 sequence (P14867 whole entry): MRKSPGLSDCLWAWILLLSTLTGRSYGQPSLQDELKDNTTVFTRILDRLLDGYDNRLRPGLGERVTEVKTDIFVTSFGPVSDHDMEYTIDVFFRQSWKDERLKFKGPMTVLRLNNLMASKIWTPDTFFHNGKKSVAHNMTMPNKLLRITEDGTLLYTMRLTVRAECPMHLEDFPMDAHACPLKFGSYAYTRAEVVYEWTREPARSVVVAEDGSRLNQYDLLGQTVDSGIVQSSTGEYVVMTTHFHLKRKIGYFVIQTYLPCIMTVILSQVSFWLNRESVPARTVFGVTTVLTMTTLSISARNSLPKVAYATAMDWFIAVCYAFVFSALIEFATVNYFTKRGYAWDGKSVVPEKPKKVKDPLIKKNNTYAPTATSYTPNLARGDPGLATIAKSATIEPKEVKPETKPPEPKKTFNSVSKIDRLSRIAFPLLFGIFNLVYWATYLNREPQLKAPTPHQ
T1 sequence (P18507 whole entry): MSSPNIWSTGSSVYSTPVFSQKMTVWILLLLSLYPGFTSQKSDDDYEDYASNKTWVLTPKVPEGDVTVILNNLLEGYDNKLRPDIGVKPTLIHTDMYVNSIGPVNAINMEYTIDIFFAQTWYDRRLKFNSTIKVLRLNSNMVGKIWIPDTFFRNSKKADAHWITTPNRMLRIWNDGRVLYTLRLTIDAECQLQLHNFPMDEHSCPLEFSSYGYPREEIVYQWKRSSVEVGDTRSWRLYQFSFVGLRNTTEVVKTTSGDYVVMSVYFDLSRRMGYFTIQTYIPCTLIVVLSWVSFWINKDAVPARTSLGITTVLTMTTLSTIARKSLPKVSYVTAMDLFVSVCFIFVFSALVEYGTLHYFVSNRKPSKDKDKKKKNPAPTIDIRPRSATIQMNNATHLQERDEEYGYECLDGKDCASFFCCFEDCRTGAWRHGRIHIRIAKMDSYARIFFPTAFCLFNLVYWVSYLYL
T1 sequence (P28472 whole entry): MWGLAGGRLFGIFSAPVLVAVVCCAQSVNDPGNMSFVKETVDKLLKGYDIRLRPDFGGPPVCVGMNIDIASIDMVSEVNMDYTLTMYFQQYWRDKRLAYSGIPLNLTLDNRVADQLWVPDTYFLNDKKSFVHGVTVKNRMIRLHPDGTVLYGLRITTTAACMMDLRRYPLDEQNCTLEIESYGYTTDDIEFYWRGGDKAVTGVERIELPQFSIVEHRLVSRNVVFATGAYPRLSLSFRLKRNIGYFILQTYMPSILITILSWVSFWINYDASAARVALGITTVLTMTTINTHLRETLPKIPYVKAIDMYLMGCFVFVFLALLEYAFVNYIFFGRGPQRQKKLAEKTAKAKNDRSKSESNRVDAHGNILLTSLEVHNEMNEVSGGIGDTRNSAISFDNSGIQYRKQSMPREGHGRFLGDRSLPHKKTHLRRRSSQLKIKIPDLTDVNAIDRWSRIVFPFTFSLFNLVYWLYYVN
The test is described as follows: Binding affinity for human recombinant gamma-aminobutyric-acid (GABA) A receptor alpha-1-beta-3-gamma-2.

For test [3], the target named is T2, Gamma-aminobutyric acid receptor subunit alpha-3/beta-3/gamma-2 (Homo sapiens, UniProt P34903+P18507+P28472).
T2 sequence (P34903 whole entry): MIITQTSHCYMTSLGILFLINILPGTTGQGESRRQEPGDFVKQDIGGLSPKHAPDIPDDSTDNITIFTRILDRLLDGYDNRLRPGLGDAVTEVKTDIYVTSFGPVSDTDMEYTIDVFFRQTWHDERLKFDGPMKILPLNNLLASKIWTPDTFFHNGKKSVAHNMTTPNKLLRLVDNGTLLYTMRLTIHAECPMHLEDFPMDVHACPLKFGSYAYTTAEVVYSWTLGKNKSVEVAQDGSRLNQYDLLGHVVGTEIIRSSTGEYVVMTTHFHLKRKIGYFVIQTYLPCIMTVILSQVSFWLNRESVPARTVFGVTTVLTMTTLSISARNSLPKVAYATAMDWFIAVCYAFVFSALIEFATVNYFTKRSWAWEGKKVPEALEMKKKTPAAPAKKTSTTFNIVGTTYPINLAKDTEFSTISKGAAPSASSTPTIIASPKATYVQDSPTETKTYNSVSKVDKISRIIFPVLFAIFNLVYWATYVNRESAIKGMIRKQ
T2 sequence (P18507 whole entry): T1 sequence (P18507 whole entry)
T2 sequence (P28472 whole entry): T1 sequence (P28472 whole entry)
The test is described as follows: Binding affinity for human recombinant gamma-aminobutyric-acid (GABA) A receptor alpha-3-beta-3-gamma-2.

Test [4] concerns the target T3, GABA-A receptor; alpha-2/beta-3/gamma-2 (Homo sapiens, UniProt P47869+P18507+P28472).
T3 sequence (P47869 whole entry): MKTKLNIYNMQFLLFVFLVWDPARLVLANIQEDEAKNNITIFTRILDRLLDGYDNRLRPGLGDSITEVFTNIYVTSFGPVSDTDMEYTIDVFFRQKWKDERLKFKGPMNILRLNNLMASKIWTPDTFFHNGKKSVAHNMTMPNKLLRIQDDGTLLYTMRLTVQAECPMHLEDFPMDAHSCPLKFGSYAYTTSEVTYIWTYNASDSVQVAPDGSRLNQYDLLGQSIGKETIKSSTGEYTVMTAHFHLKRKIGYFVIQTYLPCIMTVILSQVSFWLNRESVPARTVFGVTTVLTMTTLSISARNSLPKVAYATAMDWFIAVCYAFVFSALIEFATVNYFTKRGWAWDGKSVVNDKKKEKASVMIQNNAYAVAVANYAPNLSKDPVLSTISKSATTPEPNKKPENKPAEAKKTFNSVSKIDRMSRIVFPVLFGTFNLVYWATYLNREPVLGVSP
T3 sequence (P18507 whole entry): T1 sequence (P18507 whole entry)
T3 sequence (P28472 whole entry): T1 sequence (P28472 whole entry)
The test is described as follows: Binding affinity to human recombinant gamma-aminobutyric-acid (GABA) A receptor alpha-2-beta-3-gamma-2.

For test [5], the target named is T4, GABA-A receptor; alpha-5/beta-3/gamma-2 (Homo sapiens, UniProt P31644+P18507+P28472).
T4 sequence (P31644 whole entry): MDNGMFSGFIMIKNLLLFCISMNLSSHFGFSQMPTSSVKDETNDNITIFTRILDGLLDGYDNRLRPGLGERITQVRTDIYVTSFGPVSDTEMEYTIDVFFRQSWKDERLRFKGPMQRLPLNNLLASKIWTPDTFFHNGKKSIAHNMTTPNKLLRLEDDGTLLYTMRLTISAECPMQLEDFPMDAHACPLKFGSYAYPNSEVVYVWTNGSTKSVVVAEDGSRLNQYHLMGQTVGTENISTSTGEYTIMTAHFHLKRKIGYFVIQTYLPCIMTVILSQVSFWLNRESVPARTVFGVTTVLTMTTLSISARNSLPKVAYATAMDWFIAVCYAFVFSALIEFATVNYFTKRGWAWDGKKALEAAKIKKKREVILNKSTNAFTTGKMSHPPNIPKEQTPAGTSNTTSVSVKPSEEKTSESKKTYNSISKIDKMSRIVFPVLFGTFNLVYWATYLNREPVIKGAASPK
T4 sequence (P18507 whole entry): T1 sequence (P18507 whole entry)
T4 sequence (P28472 whole entry): T1 sequence (P28472 whole entry)
Nature of the test: Binding affinity for human recombinant gamma-aminobutyric-acid (GABA) A receptor alpha-5-beta-3-gamma-2.

pKi: −log10 of the molar value. Bounds are passed on as bounds.

One may read the pKi as the negative decadic logarithm of the Ki, by convention in mol/L.

Gamma-aminobutyric acid receptor subunit alpha-6/beta-3/gamma-2, sequence (Q16445 whole entry, one chain of several): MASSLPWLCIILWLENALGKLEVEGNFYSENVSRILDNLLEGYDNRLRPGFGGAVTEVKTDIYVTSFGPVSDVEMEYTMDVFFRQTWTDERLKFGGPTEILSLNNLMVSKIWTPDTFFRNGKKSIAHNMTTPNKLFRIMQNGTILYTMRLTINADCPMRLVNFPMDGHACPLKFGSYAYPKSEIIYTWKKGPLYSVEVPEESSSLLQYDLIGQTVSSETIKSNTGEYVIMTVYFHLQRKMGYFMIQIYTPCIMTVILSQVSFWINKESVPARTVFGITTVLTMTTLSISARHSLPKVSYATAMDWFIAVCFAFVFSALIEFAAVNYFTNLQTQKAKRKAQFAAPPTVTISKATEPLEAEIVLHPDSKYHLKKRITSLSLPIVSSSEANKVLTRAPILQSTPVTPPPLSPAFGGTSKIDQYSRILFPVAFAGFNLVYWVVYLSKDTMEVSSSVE

Turning to `COCc1c(C(=O)OC(C)C)[nH]cc2nc3ccc(OCc4ccccc4)cc3c1-2` [6-Benzyloxy-4-methoxymethyl-9H-beta-carboline-3-carboxylic acid isopropyl ester(Abecarnil)], the values for the pKi in test [1] and in test [2] were below 6.00 and 7.92, respectively.
With `c1ccc2c(c1)[nH]c1c[nH]c3c4cccnc4nc-3c12` [7,12-Dihydro-1,5,7,12-tetraaza-indeno[1,2-a]fluorene], the pKi in test [3] is 7.80; in test [1], below 5.00; in test [4] it was 7.92.
The matching figures for `c1ccc2c(c1)[nH]c1c[nH]c3c4ccncc4nc-3c12` [7,12-Dihydro-2,5,7,12-tetraaza-indeno[1,2-a]fluorene]: 7.51, below 5.00 and 7.62.
For `COc1ccc2c(c1)[nH]c1c3c4ccccc4nc-3c[nH]c12`, the pKi was below 5.00 in test [1] and 7.92 in test [4].
As for `CCOC(=O)c1[nH]cc2nc3ccccc3c-2c1COC`, the results for the pKi in test [3] and in test [5] were 8.31 and 8.00, respectively.
`CCOC(=O)c1[nH]cc2nc3ccc(OCc4ccccc4)cc3c-2c1COC` [6-Benzyloxy-4-methoxymethyl-9H-beta-carboline-3-carboxylic acid ethyl ester]: the pKi in test [3] is 8.22.
On to `Clc1ccc2c(c1)[nH]c1c3c4ccccc4nc-3c[nH]c12`, for which the pKi in test [3] is 7.62; in test [1], below 5.00; in test [4] it was 7.92.

The record behind these values is BindingDB's records for doi:10.1021/jm990341r (University of Wisconsin-Milwaukee, 2000).
